The assay relates to contractile response to histamine, terminal ileum. Kind of assay: Antihistaminic action: inhibition of contractile response to histamine (10^-6 M) in isolated terminal ileum. The assay is classed as cell-based, guinea-pig. The note with it: for inhibition at 0.1 µM / inhibition at 0.01 µM / inhibition at 1 µM: Cavia porcellus. As for the experimental part: The terminal ileum was removed from a starved guinea-pig and set up in an organ bath containing Tyrode solution maintained at 26° C. Contractile tension was recorded isometrically under a tension of 1.5 g with a strain-gauge transducer. After obtaining control response to histamine (10^-6 M), antagonists were added to the bath and allowed to remain in contact with the tissue for 3 minutes. Contractile response to histamine in the presence of the antagonists was recorded and the inhibitory rate was calculated according to the following equation: [formula] The tissue was then washed at 10 min intervals with fresh Tyrode solution. Contractile response to histamine was tested after each wash in order to study the duration of action of the antagonists.

[1] abbreviates: 0.05 h, antagonist 10^-7 M, 3 min contact, before washing, read-out: Inhibitory rate before washing.
The mark [2] stands for this setting: 0.05 h, antagonist 10^-8 M, 3 min contact, before washing, read-out: Inhibitory rate before washing.
Where [3] appears, read: antagonist 10^-7 M, after 1st washing, read-out: Inhibitory rate after 1st washing.
[4] abbreviates: antagonist 10^-7 M, after 2nd washing, read-out: Inhibitory rate after 2nd washing.
[5] abbreviates: antagonist 10^-7 M, after 3rd washing, read-out: Inhibitory rate after 3rd washing.
Where [6] appears, read: antagonist 10^-8 M, after 1st washing, read-out: Inhibitory rate after 1st washing.
[7] abbreviates: antagonist 10^-8 M, after 2nd washing, read-out: Inhibitory rate after 2nd washing.
Where [8] appears, read: 0.05 h, antagonist 10^-6 M, 3 min contact, before washing, read-out: Inhibitory rate before washing.
Setting [9] is: antagonist 10^-6 M, after 1st washing, read-out: Inhibitory rate after 1st washing.
[10] abbreviates: antagonist 10^-6 M, after 2nd washing, read-out: Inhibitory rate after 2nd washing.
The mark [11] stands for this setting: antagonist 10^-6 M, after 3rd washing, read-out: Inhibitory rate after 3rd washing.
Setting [12] is: 0.05 h, read-out: Inhibitory rate before washing.
Setting [13] is: read-out: Inhibitory rate after 1st washing.
The mark [14] stands for this setting: read-out: Inhibitory rate after 2nd washing.
The mark [15] stands for this setting: antagonist 10^-8 M, after 3rd washing, read-out: Inhibitory rate after 3rd washing.

Read-outs that look alike come from different tables or passages of the source.

With `Cn1c(=O)c2c(ncn2CCCN2CCCN(Cc3ccc(Cl)c(Cl)c3)CC2)n(C)c1=O` [(8)], the inhibition at 0.1 µM is, setting by setting: under setting [1], 65%; under setting [3], 55%; under setting [4], 28%; under setting [5], 28%. Moreover, the inhibition at 0.01 µM is, setting by setting: under setting [2], 11%; under setting [6], 29%; under setting [7], 19%. In addition, the “Inhibitory rate after 4th washing” value (antagonist 10^-7 M) is listed as 20%.
As to `Cn1c(=O)c2c(ncn2CCCN2CCCN(Cc3ccc([N+](=O)[O-])cc3)CC2)n(C)c1=O` [(10)], the inhibition at 1 µM under setting [8] came out at 100%, the inhibition at 1 µM under setting [9] was 46% and the inhibition at 1 µM under setting [10] was 19%. The inhibition at 0.1 µM reads like this: under setting [1], 65%; under setting [3], 16%. Further, the inhibition at 0.01 µM by setting is: under setting [2], 21%; under setting [6], 12%; under setting [7], 0%.
For the compound `Cn1c(=O)c2c(ncn2CCCN2CCCN(Cc3ccc(Cl)cc3)CC2)n(C)c1=O` [(5)], the inhibition at 1 µM was determined as 100% under setting [8], 84% under setting [9], 65% under setting [10] and 58% under setting [11]. Besides, the inhibition at 0.1 µM came out at 100% under setting [1], 64% under setting [3], 31% under setting [4] and 20% under setting [5]. The inhibition at 0.01 µM worked out at 2% under setting [2], 7% under setting [6] and 4% under setting [7]. In addition, the “Inhibitory rate after 5th washing” value (antagonist 10^-7 M) stood at 0%.
In the case of `CC(CN1c2ccccc2Sc2ccccc21)N(C)C` (stereo not drawn) [(1), Promethazine, reference compound], the inhibition at 0.1 µM under setting [1] was 87%, the inhibition at 0.1 µM under setting [3] worked out at 77%, the inhibition at 0.1 µM under setting [4] came to 56% and the inhibition at 0.1 µM under setting [5] came to 37%. Further, the inhibition at 0.01 µM is, setting by setting: under setting [2], 37%; under setting [6], 44%.
For `CN1CCCN(C(c2ccccc2)c2ccc(Cl)cc2)CC1` (stereo not drawn) [(3), Homochlorcyclizine, reference compound], under setting [12], the inhibition at 0.01 µM turned out to be 13% and the inhibition at 0.1 µM came out at 88%. Under setting [13], the inhibition at 0.01 µM was 46% and the inhibition at 0.1 µM was determined as 84%. Moreover, under setting [14], the inhibition at 0.01 µM amounted to 42% and the inhibition at 0.1 µM was found to be 63%. In addition, the inhibition at 0.1 µM (read-out: Inhibitory rate after 3rd washing) is 55%. In addition, under “antagonist 10^-7 M”, the “Inhibitory rate after 4th washing” value amounted to 39%, the “Inhibitory rate after 5th washing” value worked out at 25% and the “Inhibitory rate after 6th washing” value turned out to be 33%.
In the case of `Cn1c(=O)c2c(ncn2CCCN2CCCN(Cc3ccc(F)cc3)CC2)n(C)c1=O` [(9)], the inhibition at 1 µM under setting [8] is 100%, the inhibition at 1 µM under setting [9] was 27%, the inhibition at 1 µM under setting [10] is 5% and the inhibition at 1 µM under setting [11] worked out at 0%. Further, the inhibition at 0.1 µM under setting [1] is 77%, the inhibition at 0.1 µM under setting [3] was 20%, the inhibition at 0.1 µM under setting [4] amounted to 13% and the inhibition at 0.1 µM under setting [5] stood at 5%. Further, the inhibition at 0.01 µM runs as follows: under setting [2], 10%; under setting [6], 7%; under setting [7], 7%; under setting [15], 1%.
`Cn1c(=O)c2c(ncn2CCCN2CCCN(c3ccccc3)CC2)n(C)c1=O` [(4)]: the inhibition at 1 µM reads like this: under setting [8], 100%; under setting [9], 10%; under setting [10], 0%. Besides, the inhibition at 0.1 µM under setting [1] is 64%, the inhibition at 0.1 µM under setting [3] turned out to be 4% and the inhibition at 0.1 µM under setting [4] stood at 0%. For the same compound, the inhibition at 0.01 µM under setting [2] is 12% and the inhibition at 0.01 µM under setting [6] was determined as 0%.
`Cn1c(=O)c2c(ncn2CCCN2CCCN(Cc3ccccc3Cl)CC2)n(C)c1=O` [(6)]: the inhibition at 1 µM stood at 100% under setting [8] and 100% under setting [9]. Besides, the inhibition at 0.1 µM is, setting by setting: under setting [1], 80%; under setting [3], 73%; under setting [4], 58%; under setting [5], 47%. Moreover, the inhibition at 0.01 µM came out at 14% under setting [2], 14% under setting [6], 14% under setting [7] and 6% under setting [15]. For the same compound, under “antagonist 10^-7 M”, the “Inhibitory rate after 4th washing” value is 38%. In addition, where the note is “antagonist 10^-7 M”, the “Inhibitory rate after 5th washing” value was found to be 29%. Further, the “Inhibitory rate after 6th washing” value (antagonist 10^-7 M) is 29%. For the same compound, under “antagonist 10^-7 M”, the “Inhibitory rate after 7th washing” value is recorded as 20%.
On to `Cn1c(=O)c2c(ncn2CCCN2CCCN(Cc3ccccc3)CC2)n(C)c1=O` [(11)], for which the inhibition at 0.1 µM by setting is: under setting [1], 78%; under setting [3], 10%; under setting [4], 4%; under setting [5], 0%. Besides, the inhibition at 0.01 µM came out at 0% under setting [2] and 0% under setting [6].
Take `Cn1c(=O)c2c(ncn2CCCN2CCCN(Cc3ccc(Cl)cc3Cl)CC2)n(C)c1=O` [(7)]: the inhibition at 1 µM is, setting by setting: under setting [8], 96%; under setting [9], 100%; under setting [10], 100%; under setting [11], 100%. Also, the inhibition at 0.1 µM runs as follows: under setting [1], 78%; under setting [3], 59%; under setting [4], 52%; under setting [5], 30%. Further, the inhibition at 0.01 µM is 6% under setting [2], 42% under setting [6], 46% under setting [7] and 46% under setting [15]. For the same compound, the “Inhibitory rate after 4th washing” value (antagonist 10^-6 M) is reported as 83%. For the same compound, the “Inhibitory rate after 5th washing” value (antagonist 10^-6 M) was found to be 87% and the “Inhibitory rate after 5th washing” value (antagonist 10^-8 M) was found to be 32%. Also, the “Inhibitory rate after 6th washing” value (antagonist 10^-6 M) came to 85% and the “Inhibitory rate after 6th washing” value (antagonist 10^-8 M) is given as 18%. The “Inhibitory rate after 7th washing” value (antagonist 10^-8 M) came to 14%.

The values above are taken from patent US4599414A, “Theophylline derivatives” (Eisai Co., Ltd., priority 1979, dated 1986).
